Experimental data from PubChem BioAssay (NCI).
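Where inhibition never reached the appropriate level, the endpoint shown equals the highest concentration tested. Otherwise, values were interpolated linearly from a five-concentration, 48-hour dose response in 96-well plates. GI50 = concentration required for 50% inhibition of growth. TGI: concentration producing complete growth inhibition.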

What was measured:
Test in all cases: NCI tumour cell line growth inhibition, 48 h
A498 renal = tested on: A498 renal
SK-MEL-5 melanoma = tested on: SK-MEL-5 melanoma
SF-295 CNS = tested on: SF-295 CNS
RXF 393 renal = tested on: RXF 393 renal
SF-268 CNS = tested on: SF-268 CNS
HOP-92 NSCLC = tested on: HOP-92 NSCLC
DU-145 prostate = tested on: DU-145 prostate
PC-3 prostate = tested on: PC-3 prostate
UO-31 renal = tested on: UO-31 renal
HCT-15 colon = tested on: HCT-15 colon
M14 melanoma = tested on: M14 melanoma
NCI-H23 lung = tested on: NCI-H23 lung
SR leukemia = tested on: SR leukemia
SNB-19 CNS = tested on: SNB-19 CNS
OVCAR-5 ovarian = tested on: OVCAR-5 ovarian
LOX IMVI melanoma = tested on: LOX IMVI melanoma
COLO 205 colon = tested on: COLO 205 colon
MDA-MB-468 breast = tested on: MDA-MB-468 breast
MCF7 breast = tested on: MCF7 breast
MOLT-4 leukemia = tested on: MOLT-4 leukemia
CAKI-1 renal = tested on: CAKI-1 renal
BT-549 breast = tested on: BT-549 breast
ACHN renal = tested on: ACHN renal
SK-OV-3 ovarian = tested on: SK-OV-3 ovarian
MDA-MB-231 breast = tested on: MDA-MB-231 breast
T-47D breast = tested on: T-47D breast
786-0 renal = tested on: 786-0 renal
KM12 colon = tested on: KM12 colon
SF-539 CNS = tested on: SF-539 CNS
HS 578T breast = tested on: HS 578T breast
SN12C renal = tested on: SN12C renal
NCI-H460 lung = tested on: NCI-H460 lung
K-562 leukemia = tested on: K-562 leukemia
EKVX NSCLC = tested on: EKVX NSCLC
RPMI-8226 leukemia = tested on: RPMI-8226 leukemia
NCI-H522 lung = tested on: NCI-H522 lung
SK-MEL-28 melanoma = tested on: SK-MEL-28 melanoma
HOP-62 NSCLC = tested on: HOP-62 NSCLC
HCC-2998 colon = tested on: HCC-2998 colon
SNB-75 CNS = tested on: SNB-75 CNS
HT29 colon = tested on: HT29 colon
TK-10 renal = tested on: TK-10 renal
U251 CNS = tested on: U251 CNS
UACC-257 melanoma = tested on: UACC-257 melanoma
CCRF-CEM leukemia = tested on: CCRF-CEM leukemia
OVCAR-3 ovarian = tested on: OVCAR-3 ovarian
A549 NSCLC = tested on: A549 NSCLC
MDA-MB-435 = tested on: MDA-MB-435
HCT-116 colon = tested on: HCT-116 colon
HL-60(TB) leukemia = tested on: HL-60(TB) leukemia
NCI-H226 lung = tested on: NCI-H226 lung
UACC-62 melanoma = tested on: UACC-62 melanoma
OVCAR-4 ovarian = tested on: OVCAR-4 ovarian
SW-620 colon = tested on: SW-620 colon
OVCAR-8 ovarian = tested on: OVCAR-8 ovarian
IGROV1 ovarian = tested on: IGROV1 ovarian
MALME-3M melanoma = tested on: MALME-3M melanoma

`CC(C)Sc1nc(NCCc2c[nH]c3ccccc23)c(C#N)c(-c2ccc(F)cc2)n1` showed a GI50 (A498 renal) of 16.4 µM, a TGI (A498 renal) of 32.2 µM and a GI50 (SK-MEL-5 melanoma) of 6.05 µM. For the same molecule, the TGI (SK-MEL-5 melanoma) was 18.6 µM, the GI50 (SF-295 CNS) was 12 µM and the TGI (SF-295 CNS) was 25.6 µM. It also gave a GI50 (RXF 393 renal) of 4.32 µM, a TGI (RXF 393 renal) of 16.5 µM and a GI50 (SF-268 CNS) of 12.8 µM. It also gave a TGI (SF-268 CNS) of 42.2 µM, a GI50 (HOP-92 NSCLC) of 13.1 µM and a TGI (HOP-92 NSCLC) of 30.1 µM. It also gave a GI50 (DU-145 prostate) of 12 µM, a TGI (DU-145 prostate) of 27 µM and a GI50 (PC-3 prostate) of 5.38 µM. The TGI (PC-3 prostate) was 40.7 µM, the GI50 (UO-31 renal) was 11.6 µM and the TGI (UO-31 renal) was 24.1 µM. The GI50 (HCT-15 colon) was 3.74 µM, the TGI (HCT-15 colon) was 14.7 µM and the GI50 (M14 melanoma) was 9.86 µM. For the same molecule, the TGI (M14 melanoma) was 23.9 µM, the GI50 (NCI-H23 lung) was 14.3 µM and the TGI (NCI-H23 lung) was 28.3 µM. For the same molecule, the GI50 (SR leukemia) was 2.92 µM, the TGI (SR leukemia) was 28.7 µM and the GI50 (SNB-19 CNS) was 14.9 µM. It also gave a TGI (SNB-19 CNS) of 31 µM, a GI50 (OVCAR-5 ovarian) of 12.6 µM and a TGI (OVCAR-5 ovarian) of 25.1 µM. For the same molecule, the GI50 (LOX IMVI melanoma) was 3.65 µM, the TGI (LOX IMVI melanoma) was 12.8 µM and the GI50 (COLO 205 colon) was 7.98 µM. It also gave a TGI (COLO 205 colon) of 20.7 µM, a GI50 (MDA-MB-468 breast) of 3.21 µM and a TGI (MDA-MB-468 breast) of 12 µM. It also gave a GI50 (MCF7 breast) of 5.42 µM, a TGI (MCF7 breast) of 18.8 µM and a GI50 (MOLT-4 leukemia) of 6.25 µM. For the same molecule, the TGI (MOLT-4 leukemia) was 39.8 µM, the GI50 (CAKI-1 renal) was 10.1 µM and the TGI (CAKI-1 renal) was 22.2 µM. For the same molecule, the GI50 (BT-549 breast) was 11.7 µM, the TGI (BT-549 breast) was 25 µM and the GI50 (ACHN renal) was 11.1 µM. It also gave a TGI (ACHN renal) of 23.1 µM, a GI50 (SK-OV-3 ovarian) of 17.2 µM and a TGI (SK-OV-3 ovarian) of 49.3 µM. For the same molecule, the GI50 (MDA-MB-231 breast) was 9.08 µM, the TGI (MDA-MB-231 breast) was 22.1 µM and the GI50 (T-47D breast) was 4.82 µM. It also gave a TGI (T-47D breast) of 17.3 µM, a GI50 (786-0 renal) of 10.6 µM and a TGI (786-0 renal) of 22.7 µM. For the same molecule, the GI50 (KM12 colon) was 4.92 µM, the TGI (KM12 colon) was 17.9 µM and the GI50 (SF-539 CNS) was 10.3 µM. The TGI (SF-539 CNS) was 23.6 µM, the GI50 (HS 578T breast) was 10.2 µM and the TGI (HS 578T breast) was 43.4 µM. It also gave a GI50 (SN12C renal) of 12.5 µM, a TGI (SN12C renal) of 25.1 µM and a GI50 (NCI-H460 lung) of 4.25 µM. For the same molecule, the TGI (NCI-H460 lung) was 15.1 µM, the GI50 (K-562 leukemia) was 4.87 µM and the TGI (K-562 leukemia) was greater than 100 µM. The GI50 (EKVX NSCLC) was 11.4 µM, the TGI (EKVX NSCLC) was 24.5 µM and the GI50 (RPMI-8226 leukemia) was 6.7 µM. For the same molecule, the TGI (RPMI-8226 leukemia) was 49.9 µM, the GI50 (NCI-H522 lung) was 12.5 µM and the TGI (NCI-H522 lung) was 26 µM. It also gave a GI50 (SK-MEL-28 melanoma) of 12.7 µM, a TGI (SK-MEL-28 melanoma) of 27.1 µM and a GI50 (HOP-62 NSCLC) of 1.97 µM. For the same molecule, the TGI (HOP-62 NSCLC) was 4.12 µM, the GI50 (HCC-2998 colon) was 7.67 µM and the TGI (HCC-2998 colon) was 20.2 µM. The GI50 (SNB-75 CNS) was 13.6 µM, the TGI (SNB-75 CNS) was 47.2 µM and the GI50 (HT29 colon) was 4.61 µM. The TGI (HT29 colon) was 16 µM, the GI50 (TK-10 renal) was 17.4 µM and the TGI (TK-10 renal) was 32.4 µM. It also gave a GI50 (U251 CNS) of 7.65 µM, a TGI (U251 CNS) of 20.2 µM and a GI50 (UACC-257 melanoma) of 15.4 µM. The TGI (UACC-257 melanoma) was 32.1 µM, the GI50 (CCRF-CEM leukemia) was 6.34 µM and the TGI (CCRF-CEM leukemia) was 65.6 µM. It also gave a GI50 (OVCAR-3 ovarian) of 13.3 µM, a TGI (OVCAR-3 ovarian) of 27.7 µM and a GI50 (A549 NSCLC) of 12.7 µM. The TGI (A549 NSCLC) was 26.4 µM, the GI50 (MDA-MB-435) was 13.4 µM and the TGI (MDA-MB-435) was 26.8 µM. For the same molecule, the GI50 (HCT-116 colon) was 3.75 µM, the TGI (HCT-116 colon) was 14.1 µM and the GI50 (HL-60(TB) leukemia) was 11.4 µM. It also gave a TGI (HL-60(TB) leukemia) of 54.5 µM, a GI50 (NCI-H226 lung) of 9.18 µM and a TGI (NCI-H226 lung) of 21.9 µM. For the same molecule, the GI50 (UACC-62 melanoma) was 12.9 µM, the TGI (UACC-62 melanoma) was 26.6 µM and the GI50 (OVCAR-4 ovarian) was 11.4 µM. The TGI (OVCAR-4 ovarian) was 28.8 µM, the GI50 (SW-620 colon) was 7.84 µM and the TGI (SW-620 colon) was 21.1 µM. For the same molecule, the GI50 (OVCAR-8 ovarian) was 11.6 µM, the TGI (OVCAR-8 ovarian) was 26.1 µM and the GI50 (IGROV1 ovarian) was 12.3 µM. The TGI (IGROV1 ovarian) was 26.3 µM, the GI50 (MALME-3M melanoma) was 14.1 µM and the TGI (MALME-3M melanoma) was 27.2 µM.
